# In paper PMC13128453, “Complexoform-restricted covalent TRMT112 ligands that allosterically agonize METTL5” (Nature Chemical Biology, 2025):
# T1: RNF14 (Homo sapiens, UniProt Q9UBS8)
# T1 sequence (Q9UBS8 1-474): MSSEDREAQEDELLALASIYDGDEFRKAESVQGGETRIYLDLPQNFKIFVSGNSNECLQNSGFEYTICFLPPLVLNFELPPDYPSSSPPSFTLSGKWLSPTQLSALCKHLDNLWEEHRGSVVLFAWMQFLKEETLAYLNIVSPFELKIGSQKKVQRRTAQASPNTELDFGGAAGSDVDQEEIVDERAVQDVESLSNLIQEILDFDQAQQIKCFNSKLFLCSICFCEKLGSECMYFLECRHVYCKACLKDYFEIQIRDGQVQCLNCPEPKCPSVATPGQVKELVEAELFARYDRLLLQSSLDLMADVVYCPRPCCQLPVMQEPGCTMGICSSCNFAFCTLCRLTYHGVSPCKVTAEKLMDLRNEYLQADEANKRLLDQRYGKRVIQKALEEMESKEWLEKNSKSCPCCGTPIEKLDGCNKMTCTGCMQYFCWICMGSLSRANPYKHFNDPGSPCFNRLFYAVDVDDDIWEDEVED
# T2: UVRAG (Homo sapiens, UniProt Q9P2Y5)
# T2 construct: endogenous protein in Ramos cells
# T2 sequence (Q9P2Y5 1-699): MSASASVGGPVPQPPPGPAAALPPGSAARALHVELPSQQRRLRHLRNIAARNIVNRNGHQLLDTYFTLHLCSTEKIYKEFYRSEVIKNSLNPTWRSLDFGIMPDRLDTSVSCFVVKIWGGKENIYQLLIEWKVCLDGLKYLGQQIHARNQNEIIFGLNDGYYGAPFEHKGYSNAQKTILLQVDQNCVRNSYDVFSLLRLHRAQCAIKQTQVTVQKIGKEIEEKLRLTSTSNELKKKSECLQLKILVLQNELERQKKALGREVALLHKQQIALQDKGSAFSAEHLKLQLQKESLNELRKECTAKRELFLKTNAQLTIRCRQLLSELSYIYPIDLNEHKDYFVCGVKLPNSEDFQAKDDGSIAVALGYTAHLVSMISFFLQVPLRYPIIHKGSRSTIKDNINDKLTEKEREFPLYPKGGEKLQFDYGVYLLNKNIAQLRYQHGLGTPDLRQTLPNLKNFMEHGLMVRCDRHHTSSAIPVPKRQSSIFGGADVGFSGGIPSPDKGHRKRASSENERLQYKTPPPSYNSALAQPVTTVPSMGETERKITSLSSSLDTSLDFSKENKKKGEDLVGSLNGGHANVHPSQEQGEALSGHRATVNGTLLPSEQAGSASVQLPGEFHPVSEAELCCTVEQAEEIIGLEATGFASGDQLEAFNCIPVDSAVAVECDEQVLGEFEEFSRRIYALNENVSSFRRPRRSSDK
# Key:
# RNF14 [1] = target: T1, RNF14; assay: gel-ABPP and protein-directed ABPP in cells; type: cell-based; set-up: RNF14-FLAG expressed in HEK293T cells
# TRMT112 [2] = target: T3, TRMT112 (Homo sapiens, UniProt Q9NRN9+Q9UI30); assay: intact MS kobs/[I] on purified complex; gel-ABPP and protein-directed ABPP in cells; type: binding; set-up: purified WT-TRMT112:His-METTL5 (intact MS); TRMT112-FLAG in HCT116 cells coexpressing HA-METTL5; with METTL5
# TRMT112 [3] = target: T3, TRMT112; assay: intact MS kobs/[I] on purified complex; competitive gel-ABPP in HCT116 cells (IC50); type: cell-based; set-up: TRMT112-FLAG:HA-METTL5 in HCT116 cells (IC50); purified TRMT112:His-METTL5 (intact MS); with METTL5
# REEP5 = target: T4, REEP5 (Homo sapiens, UniProt Q00765); assay: cysteine-directed and competitive protein-directed ABPP in cells; type: cell-based; conditions: read-out: Competition (%)
# T4 construct: endogenous protein in Ramos cells
# RNF14 [4] = target: T1, RNF14; assay: cysteine-directed ABPP (Glu-C) and competitive protein-directed ABPP in cells; type: cell-based; set-up: endogenous RNF14 in Ramos cells; recombinant RNF14-FLAG in HEK293T cells; conditions: read-out: Competition (%)
# UVRAG = target: T2, UVRAG; assay: cysteine-directed and competitive protein-directed ABPP in cells; type: cell-based; conditions: read-out: Competition (%)
# TRMT112 [5] = target: T3, TRMT112; assay: […] A cocrystal structure; intact MS (kobs/[I][…] s-1); competitive gel-ABPP on purified complex; type: binding; set-up: full-length, tag-free TRMT112:METTL5 complex (crystal); TRMT112:His-METTL5 (IC50); with METTL5
# [6] = target: T5, METTL5 (tag-free, of the tag-free TRMT112:METTL5 complex) (human, UniProt Q9NRN9 1-209); assay: crystal structure; tag-free TRMT112:METTL5 complex modified with FWG-33B in the presence of SAM; crystals in 21% PEG3350, 0.36 M ammonium sulfate, 0.1 M Bis–Tris pH 5.5, 4 °C; 1.3 Å; conditions: both partners purified
# T5 construct: METTL5, human, full-length gene codon-optimized for E. coli; same construct as His–METTL5, the His tag removed with TEV protease; By the printed primer a Ser would remain before the first Met after TEV cleavage; also called WT-METTL5; source: E. coli BL21 (DE3), coexpressed with TRMT112, purified (Ni-NTA, TEV cleavage, Ni-NTA, anion exchange, SEC); not shown: His tag, N-terminal, cleaved
# T5 sequence (Q9NRN9 whole entry, one chain of several): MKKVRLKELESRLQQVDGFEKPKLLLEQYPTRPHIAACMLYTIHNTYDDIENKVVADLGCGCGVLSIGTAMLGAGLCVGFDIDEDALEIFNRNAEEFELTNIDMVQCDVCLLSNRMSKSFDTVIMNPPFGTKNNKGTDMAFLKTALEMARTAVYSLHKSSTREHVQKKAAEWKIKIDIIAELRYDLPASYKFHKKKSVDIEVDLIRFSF
# T3 sequence (Q9NRN9 whole entry, one chain of several): as above
# T4 sequence (Q00765 whole entry): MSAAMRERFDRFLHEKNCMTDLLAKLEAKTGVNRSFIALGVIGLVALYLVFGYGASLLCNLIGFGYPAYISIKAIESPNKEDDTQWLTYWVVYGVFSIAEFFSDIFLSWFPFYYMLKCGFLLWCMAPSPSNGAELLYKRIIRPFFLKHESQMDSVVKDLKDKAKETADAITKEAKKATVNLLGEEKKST
molecule,measurement,setting,value
"C#CCCC(=O)Nc1ccc(O[C@H]2C[C@H](c3cccc(OC)c3)[C@H]3CN(C(=O)C=C)C[C@H]32)cc1 [compound 16, FWG-4B]",gel-ABPP and protein-directed ABPP in cells,RNF14 [1],"engagement of recombinant WT-RNF14-FLAG and C68A-RNF14-FLAG, but not C212A-RNF14-FLAG by FWG-4B"
"C#CCCC(=O)Nc1ccc(O[C@@H]2C[C@H](c3cccc(OC)c3)[C@H]3CN(C(=O)C=C)C[C@H]32)cc1 [compound 14, FWG-3B]",intact MS kobs/[I] on purified complex; gel-ABPP and protein-directed ABPP in ce,TRMT112 [2],FWG-3B showed enhanced reactivity with TRMT112 exclusively in cells coexpressing the RNA MT METTL5
"C=CC(=O)N1C[C@@H]2[C@H](C1)[C@@H](c1cccc(OC)c1)C[C@H]2Oc1ccc(NC(C)=O)cc1 [compound 10, FWG-1B]",IC50,TRMT112 [3],12 µM
same,inhibition at 50 µM,REEP5,> 60%
"C=CC(=O)N1C[C@@H]2[C@H](C1)[C@@H](c1cccc(OC)c1)C[C@@H]2Oc1ccc(NC(C)=O)cc1 [compound 12, FWG-2B]",inhibition at 50 µM,RNF14 [4],> 80%
"C=CC(=O)N1C[C@@H]2[C@H](C1)[C@H](Oc1ccc(NC(C)=O)cc1)C[C@H]2c1cccc(OC)c1 [compound 11, FWG-2A]",inhibition at 50 µM,UVRAG,> 80%
"C=CC(=O)N1C[C@@H]2[C@H](C1)[C@@H](c1cccc(Cl)c1)C[C@H]2Oc1ccc(NC(C)=O)cc1 [compound 22, FWG-33B]",IC50,TRMT112 [5],470 nM
"TRMT112 modified by FWG-33B at C100 (of the FWG-33B-liganded tag-free TRMT112:METTL5 complex) (natural protein, human, UniProt Q9UI30 1-125, looked up, covalent adduct between the acrylamide of FWG-33B and C100, TRMT112, human, full-length gene codon-optimized for E. coli, in pACYCDuet-1; also called FWG-33B-modified TRMT112; source: E. coli BL21 (DE3), coexpressed with METTL5, purified as tag-free complex, then treated with 100 μM FWG-33B) MKLLTHNLLSSHVRGVGSRGFPLRLQATEVRICPVEFNPNFVARMIPKVEWSAFLEAADNLRLIQVPKGPVEGYEENEEFLRTMHHLLLEVEVIEGTLQCPESGRMFPISRGIPNMLLSEEETES",binding result,[6],binds
